Experimental data published in paper PMC4304871 (Nature structural & molecular biology, 2014).

System: 10E8 antibody
Assay: Competitive 10E8 ELISA binding assay
Parameters: species or system human

ELXKWAXLWNWFNITNZLWXIK (bicyclic or more) [SAH-MPER(662–683)(C,q)]
10E8 Fab-binding activity (in words): no binding activity
